The Kd is the equilibrium constant for the complex coming apart. A lower Kd goes with higher affinity.

For this assay, the target named is T1, STM3175 (YgiV) (Salmonella enterica, UniProt Q8ZM00).
T1 construct: full-length STM3175 (288 aa)
The assay is described as follows: tryptophan fluorescence quenching titration. The class given is binding. From the text: tryptophan fluorescence quenching titration on STM3175 (YgiV) | Fluorescence quenching of STM3175 plotted as a function of increasing azahistidine albicidin concentration.

T1 sequence (Q8ZM00 whole entry): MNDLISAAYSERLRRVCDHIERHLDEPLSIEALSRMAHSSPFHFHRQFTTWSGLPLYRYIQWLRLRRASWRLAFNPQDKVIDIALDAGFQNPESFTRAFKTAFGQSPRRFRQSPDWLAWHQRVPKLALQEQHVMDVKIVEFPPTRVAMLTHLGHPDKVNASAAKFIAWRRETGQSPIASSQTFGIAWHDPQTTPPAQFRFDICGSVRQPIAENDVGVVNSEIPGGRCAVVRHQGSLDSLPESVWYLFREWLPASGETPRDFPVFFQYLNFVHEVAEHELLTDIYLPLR

For the compound `COc1c(NC(=O)c2ccc(NC(=O)c3ccc(NC(=O)[C@H](Cc4c[nH]nn4)NC(=O)c4ccc(NC(=O)/C(C)=C/c5ccc(O)cc5)cc4)cc3)c(OC)c2O)ccc(C(=O)O)c1O` [azahistidine albicidin], binding was characterised by a dissociation constant (Kd) of 170 ± 10 nM.

Values taken from article PMC10414762, “Gene amplifications cause high-level resistance against albicidin in gram-negative bacteria” (PLOS Biology, 2023).
